What was measured:
[1] = tested on: intraocular pressure in rabbits; assay: Effects of topically administered renin inhibiting compounds on intraocular pressure of rabbits; assay type: in vivo, Male albino, New Zealand rabbits; conditions: topical 0.1 ml, 0.5% active substance
Method: The antiglaucoma activity of the compounds was tested by measuring the effect on intraocular pressure in rabbits as described by Tinjum, A.M., Acta Ophthalmologica, 50, 677 (1972). Male albino, New Zealand rabbits were placed in restraining devices and the intraocular pressure was measured with an applamatic tonometer. Exactly 0.1 ml of an isotonic saline solution containing a test compound was instilled into the conjuctival sac and the intraocular pressure was measured at 5, 15, 30, 60, 90, 120 and 180 minutes afterwards.

[2] = tested on: intraocular pressure in rabbits; assay: Dose response study of topically administered Compound V and timolol on intraocular pressure of rabbits; assay type: in vivo, rabbit; conditions: topical
Method: (§1) The antiglaucoma activity of the compounds was tested by measuring the effect on intraocular pressure in rabbits as described by Tinjum, A.M., Acta Ophthalmologica, 50, 677 (1972). Male albino, New Zealand rabbits were placed in restraining devices and the intraocular pressure was measured with an applamatic tonometer. […]

[3] = tested on: intraocular pressure in rabbits; assay: Topically administered Compound V alone and in combination with timolol on intraocular pressure of rabbits; assay type: in vivo, rabbit; conditions: topical, alone
Method: as §1

[4] = 0.05%, 15 minutes after administration
[5] = 0.05%, 30 minutes after administration
[6] = 0.05%, 60 minutes after administration
[7] = 0.03%, 5 minutes after administration
[8] = 0.03%, 15 minutes after administration
[9] = 0.03%, 30 minutes after administration
[10] = 0.03%, 60 minutes after administration
[11] = 0.03%, 90 minutes after administration
[12] = 0.03%, 120 minutes after administration
[13] = 0.03%, 150 minutes after administration

With `CC(C)(C)NC[C@H](O)COc1nsnc1N1CCOCC1` [Timolol, reference compound] the “Mean Intraocular Pressure in mmHg” value ([1]; 5 minutes after administration) was 12.1 mmHg, the “Mean Intraocular Pressure in mmHg” value ([1]; 15 minutes after administration) was 9.9 mmHg and the “Mean Intraocular Pressure in mmHg” value ([1]; 30 minutes after administration) was 11.9 mmHg. For the same compound, the “Mean Intraocular Pressure in mmHg” value ([1]; 60 minutes after administration) was 10.6 mmHg, the “Mean Intraocular Pressure in mmHg” value ([1]; 90 minutes after administration) was 12.4 mmHg and the “Mean Intraocular Pressure in mmHg” value ([1]; 120 minutes after administration) was 13.3 mmHg. The “Mean Intraocular Pressure in mmHg” value ([2]; 0.02%, 30 minutes after administration) was 13.9 mmHg, the “Mean Intraocular Pressure in mmHg” value ([2]; 0.02%, 120 minutes after administration) was 22.4 mmHg and the “Mean Intraocular Pressure in mmHg” value ([2]; 0.02%, 150 minutes after administration) was 19.9 mmHg. The “Mean Intraocular Pressure in mmHg” value [2, 4] was 12.8 mmHg, the “Mean Intraocular Pressure in mmHg” value [2, 5] was 12.8 mmHg and the “Mean Intraocular Pressure in mmHg” value [2, 6] was 12.3 mmHg. For the same compound, the “Mean Intraocular Pressure in mmHg” value ([2]; 0.05%, 150 minutes after administration) was 20.3 mmHg, the “Mean Intraocular Pressure in mmHg” value ([2]; 0.2%, 5 minutes after administration) was 12.1 mmHg and the “Mean Intraocular Pressure in mmHg” value ([2]; 0.2%, 15 minutes after administration) was 12.5 mmHg. The “Mean Intraocular Pressure in mmHg” value ([2]; 0.2%, 60 minutes after administration) was 12.8 mmHg, the “Mean Intraocular Pressure in mmHg” value ([2]; 0.5%, 5 minutes after administration) was 12.8 mmHg and the “Mean Intraocular Pressure in mmHg” value ([2]; 0.5%, 15 minutes after administration) was 12.8 mmHg. For the same compound, the “Mean Intraocular Pressure in mmHg” value ([2]; 0.5%, 30 minutes after administration) was 11.0 mmHg, the “Mean Intraocular Pressure in mmHg” value ([2]; 0.5%, 60 minutes after administration) was 10.9 mmHg and the “Mean Intraocular Pressure in mmHg” value ([3]; 0.05%, 5 minutes after administration) was 10.2 mmHg. The “Mean Intraocular Pressure in mmHg” value [3, 4] was 11.0 mmHg, the “Mean Intraocular Pressure in mmHg” value [3, 5] was 10.1 mmHg and the “Mean Intraocular Pressure in mmHg” value [3, 6] was 9.9 mmHg. For the same compound, the “Mean Intraocular Pressure in mmHg” value ([3]; 0.05%, 90 minutes after administration) was 13.9 mmHg.
In the case of `COc1ccc(CC(NC(=O)CC(C)(C)N)C(=O)NC(Cc2cnc[nH]2)C(=O)N[C@@H](CC2CCCCC2)[C@@H](O)[C@@H](O)CC(C)C)cc1` (stereo partly drawn) [Compound V, H-((beta,beta-dimethyl)-beta Ala)-(4-OCH3)Phe-His amide of 2(S)-amino 1-cyclohexyl 3(R),4(S) dihydroxy-6-methylheptane], the “Mean Intraocular Pressure in mmHg” value ([2]; 0.01%, 5 minutes after administration) was 17.7 mmHg, the “Mean Intraocular Pressure in mmHg” value ([2]; 0.01%, 15 minutes after administration) was 16.3 mmHg and the “Mean Intraocular Pressure in mmHg” value ([2]; 0.01%, 30 minutes after administration) was 13.7 mmHg. The “Mean Intraocular Pressure in mmHg” value ([2]; 0.01%, 60 minutes after administration) was 16.9 mmHg, the “Mean Intraocular Pressure in mmHg” value ([2]; 0.01%, 90 minutes after administration) was 15.4 mmHg and the “Mean Intraocular Pressure in mmHg” value ([2]; 0.01%, 120 minutes after administration) was 18.2 mmHg. The “Mean Intraocular Pressure in mmHg” value ([2]; 0.01%, 150 minutes after administration) was 20.3 mmHg, the “Mean Intraocular Pressure in mmHg” value ([2]; 0.01%, CONTROL) was 19.2 mmHg and the “Mean Intraocular Pressure in mmHg” value [2, 7] was 13.8 mmHg. The “Mean Intraocular Pressure in mmHg” value [2, 8] was 13.3 mmHg, the “Mean Intraocular Pressure in mmHg” value [2, 9] was 12.8 mmHg and the “Mean Intraocular Pressure in mmHg” value [2, 10] was 13.8 mmHg. For the same compound, the “Mean Intraocular Pressure in mmHg” value [2, 11] was 13.8 mmHg, the “Mean Intraocular Pressure in mmHg” value [2, 12] was 15.2 mmHg and the “Mean Intraocular Pressure in mmHg” value [2, 13] was 16.8 mmHg. The “Mean Intraocular Pressure in mmHg” value ([2]; 0.03%, CONTROL) was 19.0 mmHg, the “Mean Intraocular Pressure in mmHg” value ([2]; 0.1%, 5 minutes after administration) was 14.1 mmHg and the “Mean Intraocular Pressure in mmHg” value ([2]; 0.1%, 15 minutes after administration) was 13.1 mmHg. For the same compound, the “Mean Intraocular Pressure in mmHg” value ([2]; 0.1%, 30 minutes after administration) was 11.9 mmHg, the “Mean Intraocular Pressure in mmHg” value ([2]; 0.1%, 60 minutes after administration) was 11.3 mmHg and the “Mean Intraocular Pressure in mmHg” value ([2]; 0.1%, 90 minutes after administration) was 11.5 mmHg. The “Mean Intraocular Pressure in mmHg” value ([2]; 0.1%, 120 minutes after administration) was 17.5 mmHg, the “Mean Intraocular Pressure in mmHg” value ([2]; 0.1%, 150 minutes after administration) was 19.0 mmHg and the “Mean Intraocular Pressure in mmHg” value ([2]; 0.1%, CONTROL) was 18.7 mmHg. For the same compound, the “Mean Intraocular Pressure in mmHg” value ([2]; 0.3%, 5 minutes after administration) was 13.3 mmHg, the “Mean Intraocular Pressure in mmHg” value ([2]; 0.3%, 15 minutes after administration) was 12.0 mmHg and the “Mean Intraocular Pressure in mmHg” value ([2]; 0.3%, 30 minutes after administration) was 10.9 mmHg. For the same compound, the “Mean Intraocular Pressure in mmHg” value ([2]; 0.3%, 60 minutes after administration) was 12.2 mmHg, the “Mean Intraocular Pressure in mmHg” value ([2]; 0.3%, 90 minutes after administration) was 12.4 mmHg and the “Mean Intraocular Pressure in mmHg” value ([2]; 0.3%, 120 minutes after administration) was 16.0 mmHg. For the same compound, the “Mean Intraocular Pressure in mmHg” value ([2]; 0.3%, 150 minutes after administration) was 18.8 mmHg, the “Mean Intraocular Pressure in mmHg” value ([2]; 0.3%, CONTROL) was 21.2 mmHg and the “Mean Intraocular Pressure in mmHg” value [3, 7] was 10.4 mmHg. For the same compound, the “Mean Intraocular Pressure in mmHg” value [3, 8] was 10.3 mmHg, the “Mean Intraocular Pressure in mmHg” value [3, 9] was 10.1 mmHg and the “Mean Intraocular Pressure in mmHg” value [3, 10] was 10.2 mmHg. For the same compound, the “Mean Intraocular Pressure in mmHg” value [3, 11] was 10.4 mmHg, the “Mean Intraocular Pressure in mmHg” value [3, 12] was 14.5 mmHg and the “Mean Intraocular Pressure in mmHg” value [3, 13] was 17.0 mmHg. For the same compound, the “Mean Intraocular Pressure in mmHg” value ([3]; 0.03%, CONTROL) was 17.5 mmHg.

Reference: patent US5059589A, “Glaucoma treatment” (Abbott Laboratories, priority 1990, dated 1991)
